Measured values taken from patent publication US20120152149A1, “USE OF 1,3-DIOLS AS BIOCIDES” (BASF SE, priority 2009, published 2012).
Where two headings read alike, the source gives them in different places.

Tests used:
Assay type in all cases: cell-based
A. niger IMI 149007 = test: Microstatic activity, MIC in tryptone soy broth; conditions: Aspergillus niger, IMI149007, 120 h, 25° C., 5 days
Procedure: (§1) For this, in each case a 40 percent strength by weight solution of a diol in propylene glycol was prepared at 60° C. This solution was diluted with a double-strength soy solution (double-strength tryptone soy broth) as nutrient medium in the volume ratio 1:1. Further dilution with soy solution produced solutions with the following concentrations: 400 000 ppm (40%), 200 000 ppm (20%), 100 000 ppm (10%), 50 000 ppm (5%), 25 000 ppm (2.5%), 12 500 ppm (1.25%), 6250 ppm (0.625%), 3125 ppm (0.3125%). Pure soy solution was used as negative control. The positive control used was a solution of 5 ml of soy solution which has been treated with 0.1 ml of the respective microorganism. The test solutions consisted of 5 ml of the above-described soy solutions of the diols in the particular concentration which have been mixed with 0.1 ml of the respective microorganism. The samples and controls were incubated in the case of the bacteria at 30° C. for 48 hours, and in the case of fungi over 5 days at 25° C. In each case, the MIC (Minimum Inhibitory Concentration) value was determined. This value indicates the minimum concentration above which the growth of the microorganisms was visibly hindered compared to the corresponding sample without addition of the diol. […] For example, this was evident from the occurrence of clouding or visible growth of the microorganism. […] The MIC value stated is a range between the next higher concentration of a positive test and the same and/or lower concentration of a first negative test.

C. albicans NCPF 3179 = test: Microstatic activity, MIC in tryptone soy broth; conditions: Candida albicans, NCPF3179, 120 h, 25° C., 5 days
Procedure: as §1

E. coli NCIMB 8545 = test: Microstatic activity, MIC in tryptone soy broth; conditions: Escherichia coli, NCIMB8545, 30° C., 48 hours
Procedure: as §1

[1] = system: P. aeruginosa NCIMB 10421; test: Microstatic activity, MIC in tryptone soy broth; conditions: Pseudomonas aeruginosa, NCIMB10421, 30° C., 48 hours
Procedure: as §1

P. vulgaris NCIMB 4175 = test: Microstatic activity, MIC in tryptone soy broth; conditions: Proteus vulgaris, NCIMB4175, 30° C., 48 hours
Procedure: as §1

S. aureus NCIMB 9578 = test: Microstatic activity, MIC in tryptone soy broth; conditions: Staphylococcus aureus, NCIMB9578, 30° C., 48 hours
Procedure: as §1

[2] = system: series of tested microorganisms (bacteria and fungi); test: Microstatic activity, highest MIC from the series of tested microorganisms; conditions: highest measured MIC from the series of tested microorganisms
Procedure: The following microorganisms were used;to test the biocidal effect against various bacteria and fungi: In each case, the MIC (Minimum Inhibitory Concentration) value was determined. This value indicates the minimum concentration above which the growth of the microorganisms was visibly hindered compared to the corresponding sample without addition of the diol. The MIC value stated is a range between the next higher concentration of a positive test and the same and/or lower concentration of a first negative test. In the last line of each of the tables below, a “maximum” value is listed. This value indicates the highest measured MIC value in each case from the series of tested microorganisms.

A. niger ATCC 16404 = test: Preservation stress test, example formulation 1 (standard emulsion O/W); conditions: 1% active substance
Procedure: (§2) Preservation stress tests (PSTs) were carried out in order to determine the preserving activity of the diols. In the preservation stress test, this is simulated through artificial loadings with microorganisms. These can either be inoculated as mixed population or individually in mixtures independent of one another. The inoculated product samples are incubated under defined conditions and, after defined times, samples are taken in order to determine the germ loading. In the case of adequate preservation, the number of microorganisms should, depending on the type, either decrease or remain constant in order to satisfy the requirements specified, e.g. in Ph. Eur. 6.0. To investigate the preserving effect of the diols, application-typical amounts of the diols were incorporated into example formulations. […] [table] These example formulations were used to prepare various mixtures which each comprised 1% active substance or comprised water instead of the active substance as placebo mixtures. These mixtures were in each case inoculated with the test germs such that a germ loading of 10^5-10^6 CFU/g was present in the test mixture. The bacteria were either used individually for the inoculation or as a mixed culture. To determine the starting germ count, immediately after inoculation, an aliquot was taken, diluted in dilution medium (phosphate buffer, 0.07 molar pH 7.4 (+/−0.2), with 1% Tween 80+0.3% soya lecithin), and the surviving germ count was determined in the dilution stages 10^−1 to 10^−3. The inoculated product samples then incubated for a total of 28 d at 20-25° C. After 2 d, 7 d, 14 d and after 28 d, aliquots were taken and diluted in dilution medium (phosphate buffer, 0.07 molar pH 7.4 (+/−0.2), with 1% Tween 80+0.3% soya lecithin). The surviving germ counts were determined in the dilution stages 10^−1 to 10^−4. The reference point taken for determining the reduction in germ count was the respective initial value of the sample. The results were given as logarithmic reductions.

C. albicans ATCC 10231 = test: as above; conditions: 1% active substance
Procedure: as §2

E. coli ATCC 10536 = test: Preservation stress test, example formulation 2 (roll-on deodorant formulation); conditions: 1% active substance
Procedure: as §2

P. aeruginosa ATCC 15442 = test: as above; conditions: 1% active substance
Procedure: as §2

S. aureus ATCC 6538 = test: as above; conditions: 1% active substance
Procedure: as §2

[3] = lower limit of MIC range, read-out: MIC value (ppm of diol), from
[4] = upper limit of MIC range, read-out: MIC value (ppm of diol), to
[5] = lower limit, read-out: Maximum MIC value (ppm of diol), from
[6] = upper limit, read-out: Maximum MIC value (ppm of diol), to

Row | MIC (A. niger IMI 149007; [3]) [mg/mL] | MIC (A. niger IMI 149007; [4]) [mg/mL] | MIC (C. albicans NCPF 3179; [3]) [mg/mL] | MIC (C. albicans NCPF 3179; [4]) [mg/mL] | MIC (E. coli NCIMB 8545; [3]) [mg/mL] | MIC (E. coli NCIMB 8545; [4]) [mg/mL] | MIC [1, 3] [mg/mL] | MIC [1, 4] [mg/mL] | MIC (P. vulgaris NCIMB 4175; [3]) [mg/mL] | MIC (P. vulgaris NCIMB 4175; [4]) [mg/mL] | MIC (S. aureus NCIMB 9578; [3]) [mg/mL] | MIC (S. aureus NCIMB 9578; [4]) [mg/mL] | MIC [2, 5] [mg/mL] | MIC [2, 6] [mg/mL] | Structure (SMILES) | Microbicidal activity given as logarithmic reduction in germ count (A. niger ATCC 16404; 48 h) [log. Red.] | Microbicidal activity given as logarithmic reduction in germ count (A. niger ATCC 16404; 7 d) [log. Red.] | Microbicidal activity given as logarithmic reduction in germ count (A. niger ATCC 16404; 14 d) [log. Red.] | Microbicidal activity given as logarithmic reduction in germ count (A. niger ATCC 16404; 28 d) [log. Red.] | Microbicidal activity given as logarithmic reduction in germ count (C. albicans ATCC 10231; 48 h) | Microbicidal activity given as logarithmic reduction in germ count (C. albicans ATCC 10231; 7 d) | other results
1 | > 25 | ≤ 50 | > 50 | ≤ 100 | > 3.12 | ≤ 6.25 | > 12.5 | ≤ 25 | > 6.25 | ≤ 12.5 | > 12.5 | ≤ 25 | > 50 | ≤ 100 | OCC1(CO)CC2CCC1C2 (stereo not drawn) [2,2-DMNB, 2,2-dimethylolnorbornane] | 0 | 0 | 0 | 0 | 1 log. Red. | ≧3 log. Red. | Microbicidal activity given as logarithmic reduction in germ count (C. albicans ATCC 10231; 14 d): 5 log. Red.; Microbicidal activity given as logarithmic reduction in germ count (C. albicans ATCC 10231; 28 d): 5 log. Red.; Microbicidal activity given as logarithmic reduction in germ count (E. coli ATCC 10536; 48 h): 2 log. Red.; Microbicidal activity given as logarithmic reduction in germ count (E. coli ATCC 10536; 7 d): ≧3 log. Red.; Microbicidal activity given as logarithmic reduction in germ count (E. coli ATCC 10536; 14 d): 5 log. Red.; Microbicidal activity given as logarithmic reduction in germ count (E. coli ATCC 10536; 28 d): 5 log. Red.; Microbicidal activity given as logarithmic reduction in germ count (P. aeruginosa ATCC 15442; 48 h): 3 log. Red.; Microbicidal activity given as logarithmic reduction in germ count (P. aeruginosa ATCC 15442; 7 d): 5 log. Red.; Microbicidal activity given as logarithmic reduction in germ count (P. aeruginosa ATCC 15442; 14 d): 5 log. Red.; Microbicidal activity given as logarithmic reduction in germ count (P. aeruginosa ATCC 15442; 28 d): 5 log. Red.; Microbicidal activity given as logarithmic reduction in germ count (S. aureus ATCC 6538; 48 h): ≧3 log. Red.; Microbicidal activity given as logarithmic reduction in germ count (S. aureus ATCC 6538; 7 d): 5 log. Red.; Microbicidal activity given as logarithmic reduction in germ count (S. aureus ATCC 6538; 14 d): 5 log. Red.; Microbicidal activity given as logarithmic reduction in germ count (S. aureus ATCC 6538; 28 d): 5 log. Red.
2 | > 25 | ≤ 50 | > 25 | ≤ 50 | > 6.25 | ≤ 12.5 | > 12.5 | ≤ 25 | > 6.25 | ≤ 12.5 | > 12.5 | ≤ 25 | > 25 | ≤ 50 | CC(C)C(C)(CO)CO [IMPD, 2-isopropyl-2-methylpropane-1,3-diol] | 1 | 1 | 2 | 3 | 1 log. Red. | ≧3 log. Red. | Microbicidal activity given as logarithmic reduction in germ count (C. albicans ATCC 10231; 14 d): 5 log. Red.; Microbicidal activity given as logarithmic reduction in germ count (C. albicans ATCC 10231; 28 d): 5 log. Red.; Microbicidal activity given as logarithmic reduction in germ count (E. coli ATCC 10536; 48 h): 3 log. Red.; Microbicidal activity given as logarithmic reduction in germ count (E. coli ATCC 10536; 7 d): 5 log. Red.; Microbicidal activity given as logarithmic reduction in germ count (E. coli ATCC 10536; 14 d): 5 log. Red.; Microbicidal activity given as logarithmic reduction in germ count (E. coli ATCC 10536; 28 d): 5 log. Red.; Microbicidal activity given as logarithmic reduction in germ count (P. aeruginosa ATCC 15442; 48 h): 1 log. Red.; Microbicidal activity given as logarithmic reduction in germ count (P. aeruginosa ATCC 15442; 7 d): ≧3 log. Red.; Microbicidal activity given as logarithmic reduction in germ count (P. aeruginosa ATCC 15442; 14 d): 5 log. Red.; Microbicidal activity given as logarithmic reduction in germ count (P. aeruginosa ATCC 15442; 28 d): 5 log. Red.; Microbicidal activity given as logarithmic reduction in germ count (S. aureus ATCC 6538; 48 h): ≧3 log. Red.; Microbicidal activity given as logarithmic reduction in germ count (S. aureus ATCC 6538; 7 d): 5 log. Red.; Microbicidal activity given as logarithmic reduction in germ count (S. aureus ATCC 6538; 14 d): 5 log. Red.; Microbicidal activity given as logarithmic reduction in germ count (S. aureus ATCC 6538; 28 d): 5 log. Red.
3 | > 50 | ≤ 100 | > 25 | ≤ 50 | > 3.12 | ≤ 6.25 | > 12.5 | ≤ 25 | > 12.5 | ≤ 25 | > 3.12 | ≤ 6.25 | > 50 | ≤ 100 | OCC1(CO)CCCC1 [DMCP, 1,1-dimethylolcyclopentane] | 2 | 1 | 2 | 2 | ≧3 log. Red. | 5 log. Red. | Microbicidal activity given as logarithmic reduction in germ count (C. albicans ATCC 10231; 14 d): 5 log. Red.; Microbicidal activity given as logarithmic reduction in germ count (C. albicans ATCC 10231; 28 d): 5 log. Red.; Microbicidal activity given as logarithmic reduction in germ count (E. coli ATCC 10536; 48 h): 1 log. Red.; Microbicidal activity given as logarithmic reduction in germ count (E. coli ATCC 10536; 7 d): 3 log. Red.; Microbicidal activity given as logarithmic reduction in germ count (E. coli ATCC 10536; 14 d): 5 log. Red.; Microbicidal activity given as logarithmic reduction in germ count (E. coli ATCC 10536; 28 d): 5 log. Red.; Microbicidal activity given as logarithmic reduction in germ count (P. aeruginosa ATCC 15442; 48 h): 1 log. Red.; Microbicidal activity given as logarithmic reduction in germ count (P. aeruginosa ATCC 15442; 7 d): ≧3 log. Red.; Microbicidal activity given as logarithmic reduction in germ count (P. aeruginosa ATCC 15442; 14 d): 5 log. Red.; Microbicidal activity given as logarithmic reduction in germ count (P. aeruginosa ATCC 15442; 28 d): 5 log. Red.; Microbicidal activity given as logarithmic reduction in germ count (S. aureus ATCC 6538; 48 h): ≧3 log. Red.; Microbicidal activity given as logarithmic reduction in germ count (S. aureus ATCC 6538; 7 d): 5 log. Red.; Microbicidal activity given as logarithmic reduction in germ count (S. aureus ATCC 6538; 14 d): 5 log. Red.; Microbicidal activity given as logarithmic reduction in germ count (S. aureus ATCC 6538; 28 d): 5 log. Red.
